Data on one compound can be found in ChEMBL document CHEMBL5036353, “Discovery of Pyrazolo[3,4-d]pyridazinone Derivatives as Selective DDR1 Inhibitors via Deep Learning Based Design, Synthesis, and Biological Evaluation” (J Med Chem, 2022).

Assay [1] has as its system Macrophage. Kind of assay: Antiinflammatory activity against mouse primary bone marrow derived macrophages assessed as inhibition of LPS-induced IL-6 expression by ELISA. Format: functional, tissue-based. To be noted: dose 10.0 µM.
The test system of assay [2] is Macrophage. Kind of assay: Antiinflammatory activity against mouse primary bone marrow derived macrophages assessed as inhibition of LPS-induced IL-1beta expression at 10 uM by ELISA. Format: functional, tissue-based.
The test system of assay [3] is Macrophage. Briefly: Antiinflammatory activity against mouse primary bone marrow derived macrophages assessed as inhibition of LPS-induced TNF expression at 10 uM by ELISA. Format: functional, tissue-based.
Assay [4] deals with THP-1. Kind of assay: Antiinflammatory activity against human THP-1 derived macrophages assessed as inhibition of LPS-induced IL6 expression by ELISA. To be noted: dose 10.0 µM. Format: functional, cell-based.
For assay [5], the system named is THP-1. Briefly: Antiinflammatory activity against human THP-1 derived macrophage assessed as inhibition of LPS-induced IL-1beta expression at 10 uM by ELISA. Format: functional, cell-based.
Assay [6] concerns THP-1. Kind of assay: Antiinflammatory activity against human THP-1 derived macrophage assessed as inhibition of LPS-induced TNF expression at 10 uM by ELISA. Format: functional, cell-based.
The subject of assay [7] is Mus musculus. Briefly: Anti-colitis activity against DSS-induced IBD C57BL/6 mouse model assessed as improvement in DSS induced weight loss at 5 to 10 mg/kg, po administered daily and measured after 5 to 8 days. Format: functional, organism-based. To be noted: dose 5-10 mg/kg, time 5-8 day.
In assay [8] the test system is Mus musculus. Briefly: Anti-colitis activity against DSS-induced IBD C57BL/6 mouse model assessed as reduction in fecal occult blood score at 5 to 10 mg/kg, po administered daily and measured after 9 days. Format: functional, organism-based. To be noted: dose 5-10 mg/kg, time 9.0 day.
Assay [9] relates to Mus musculus. Kind of assay: Anti-colitis activity against DSS-induced IBD C57BL/6 mouse model assessed as improvement in DSS reduced colon length at 5 to 10 mg/kg, po administered daily and measured after 9 days. Format: functional, organism-based. To be noted: dose 5-10 mg/kg, time 9.0 day.
Assay [10] has as its system Mus musculus. Briefly: Anti-colitis activity against DSS-induced IBD C57BL/6 mouse model assessed as reduction in IL-6 transcription level in colon at 5 to 10 mg/kg, po administered daily by RT-qPCR analysis. Format: functional, organism-based. To be noted: dose 5-10 mg/kg.
The subject of assay [11] is Mus musculus. Kind of assay: Anti-colitis activity against DSS-induced IBD C57BL/6 mouse model assessed as reduction in IL-1beta transcription level in colon at 5 to 10 mg/kg, po administered daily by RT-qPCR analysis. Format: functional, organism-based. To be noted: dose 5-10 mg/kg.
For assay [12], the system named is Mus musculus. Briefly: Anti-colitis activity against DSS-induced IBD C57BL/6 mouse model assessed as reduction in TNF transcription level in colon at 5 to 10 mg/kg, po administered daily by RT-qPCR analysis. To be noted: dose 5-10 mg/kg. Format: functional, organism-based.
In assay [13] the test system is Mus musculus. Briefly: Anti-colitis activity against DSS-induced IBD C57BL/6 mouse model assessed as reduction in serum IL-6 expression at 5 to 10 mg/kg, po administered daily by ELISA. To be noted: dose 5-10 mg/kg. Format: functional, organism-based.
In assay [14] the test system is Mus musculus. Briefly: Anti-colitis activity against DSS-induced IBD C57BL/6 mouse model assessed as reduction in serum IL-1beta expression at 5 to 10 mg/kg, po administered daily by ELISA. To be noted: dose 5-10 mg/kg. Format: functional, organism-based.
The subject of assay [15] is Mus musculus. Briefly: Anti-colitis activity against DSS-induced IBD C57BL/6 mouse model assessed as reduction in serum TNF expression at 5 to 10 mg/kg, po administered daily by ELISA. Format: functional, organism-based. To be noted: dose 5-10 mg/kg.
For assay [16], the target named is NT-3 growth factor receptor (Homo sapiens) (UniProt Q16288). Kind of assay: Inhibition of recombinant human TRKC (510 to end residues) assessed as residual activity at 10 uM using GEEPLYWSFPAKKK as substrate incubated for 40 mins in presence of [gamma33P]ATP by scintillation counting based radiometry assay relative to control.
Assay [17] relates to Mus musculus. Kind of assay: Anti-colitis activity against DSS-induced IBD C57BL/6 mouse model assessed as reduction in inflammatory cell infiltration in colon at 5 to 10 mg/kg, po administered daily measured after 9 days by HE staining based analysis. Format: functional, organism-based. To be noted: dose 5-10 mg/kg, time 9.0 day.
Assay [18] has as its system Mus musculus. Kind of assay: Anti-colitis activity against DSS-induced IBD C57BL/6 mouse model assessed as reduction in severe epithelial destruction in colon at 5 to 10 mg/kg, po administered daily measured after 9 days by HE staining based analysis. Format: functional, organism-based. To be noted: dose 5-10 mg/kg, time 9.0 day.
The subject of assay [19] is Mus musculus. Kind of assay: Anti-colitis activity against DSS-induced IBD C57BL/6 mouse model assessed as reduction in crypt loss in colon at 5 to 10 mg/kg, po administered daily measured after 9 days by HE staining based analysis. Format: functional, organism-based. To be noted: dose 5-10 mg/kg, time 9.0 day.

Calls of active or inactive are those of the source. The rule behind the calls is not given here.

Sequence of NT-3 growth factor receptor (Homo sapiens) (Q16288 32-839 limits assumed): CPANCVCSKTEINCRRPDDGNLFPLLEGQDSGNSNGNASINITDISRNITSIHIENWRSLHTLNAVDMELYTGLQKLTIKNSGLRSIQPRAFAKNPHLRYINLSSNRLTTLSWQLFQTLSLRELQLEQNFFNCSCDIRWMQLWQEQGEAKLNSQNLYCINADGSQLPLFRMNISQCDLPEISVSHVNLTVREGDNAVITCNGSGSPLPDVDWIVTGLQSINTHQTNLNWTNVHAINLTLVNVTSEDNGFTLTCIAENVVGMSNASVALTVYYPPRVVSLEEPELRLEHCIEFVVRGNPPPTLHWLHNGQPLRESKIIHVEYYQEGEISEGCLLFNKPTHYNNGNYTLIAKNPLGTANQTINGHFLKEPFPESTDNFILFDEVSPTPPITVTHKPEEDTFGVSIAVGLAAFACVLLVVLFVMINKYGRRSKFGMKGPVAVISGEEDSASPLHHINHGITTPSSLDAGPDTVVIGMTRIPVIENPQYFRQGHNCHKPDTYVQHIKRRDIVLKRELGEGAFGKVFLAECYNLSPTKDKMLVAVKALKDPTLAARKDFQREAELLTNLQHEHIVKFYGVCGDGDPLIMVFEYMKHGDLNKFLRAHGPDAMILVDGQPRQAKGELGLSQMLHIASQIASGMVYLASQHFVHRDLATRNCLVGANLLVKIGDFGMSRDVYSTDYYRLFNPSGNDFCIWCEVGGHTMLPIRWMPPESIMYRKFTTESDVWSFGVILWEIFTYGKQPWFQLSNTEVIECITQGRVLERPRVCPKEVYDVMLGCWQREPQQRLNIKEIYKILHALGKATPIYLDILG

On to `CC(=O)Nc1ccc(-n2nc3c(=O)[nH]nc(N)c3c2-c2oc3cc(C(=O)Nc4cccc(C(F)(F)F)c4)ccc3c2C)cc1`, for which the Activity entry was “Dose-Dependent Effect” with Macrophage [1], “Dose-Dependent Effect” in the assay with THP-1 [4] and 45% in assay [16]. For the same compound, the result in the assay with Macrophage [2], in the assay with Macrophage [3], in the assay on THP-1 [5], with THP-1 [6], in the assay with Mus musculus [7] and in the assay on Mus musculus [8] was Active. The outcome in the assay with Mus musculus [9], in the assay with Mus musculus [10], in the assay on Mus musculus [11], in the assay on Mus musculus [12], in the assay on Mus musculus [13] and in the assay on Mus musculus [14] was Active. The outcome with Mus musculus [15], in the assay on Mus musculus [17], in the assay on Mus musculus [18] and with Mus musculus [19] was Active.
